Measurements reported in US20240327463A1, “ANTIBACTERIAL PRODUCTS” (priority 2017, published 2024).
≈ marks a conversion by molar mass, not a printed value. Bridge positions count the residues as written; N and C are the ends. Square brackets hold non-standard residues; d marks the D form. Peptide text beside a SMILES is read from it. ξ: configuration not given here. dNMeF = CN[C@H](Cc1ccccc1)C(=O)O; Ile(3ξ) = CCC(C)[C@H](N)C(=O)O; Chg = N[C@H](C(=O)O)C1CCCCC1; Nva = CCC[C@H](N)C(=O)O

Test system: MRSA ATCC 33591
Conditions: ATCC 33591
Protocol: For MIC testing all peptides were dissolved in DMSO (according to the method of L. L. Ling, et al., Nature 2015, 517, 455-459). Bacteria were grown on Mueller Hinton broth (oxoid). All incubations were at 37° C. Dilutions were carried out using Mueller Hinton. 100 μl of autoclaved Mueller Hinton broth was added to wells 2-12 on a 96-well plate. 200 μl of the peptide was added to well one at a concentration of 512 μg/ml. 100 μl of peptide in well one was taken up and pipetted into well two. The mixture was then mixed via pipetting before 100 μl was taken up and pipetted into well three. This process was repeated up to well 11. […] This was repeated three times. The 96-well plates were then incubated for 24 hours. The MIC was determined to be the lowest concentration at which there was no growth visible.

MIC (MRSA*) [µg/mL]	MIC (MRSA) [µg/mL]	SMILES
–	0.25 (≈ 0.206 µM)	CCC[C@@H]1NC(=O)[C@H](C)NC(=O)[C@H](NC(=O)[C@H](CO)NC(=O)[C@@H](NC(=O)[C@H](NC(=O)[C@@H](CCCNC(=N)N)NC(=O)[C@H](CO)NC(=O)[C@@H](NC(=O)[C@@H](Cc2ccccc2)NC)[C@@H](C)CC)[C@H](C)CC)[C@@H](C)CC)[C@H](C)OC(=O)[C@H]([C@@H](C)CC)NC1=O [Compound 46, D-Arg4-Nva10-teixobactin]
–	64 (≈ 45.4 µM)	CC[C@@H](C)[C@@H](NC(=O)[C@@H](CCCNC(=N)N)NC(=O)[C@H](CCCNC(=N)N)NC(=O)[C@@H](NC(=O)[C@@H](Cc1ccccc1)NC)[C@@H](C)CC)C(=O)N[C@H](C(=O)N[C@@H](CO)C(=O)N[C@H]1C(=O)N[C@@H](CCCNC(=N)N)C(=O)N[C@@H](C2CCCCC2)C(=O)N[C@@H]([C@@H](C)CC)C(=O)O[C@H]1C)[C@@H](C)CC [Compound 43, Arg3-D-Arg4-Arg9-Chg10-teixobactin] (H-[dNMeF]IR[dR][dI]IS[dT]R[Chg]I; ester 8-C)
–	>64	CCC[C@@H]1NC(=O)[C@H](C)NC(=O)[C@H](NC(=O)[C@H](CO)NC(=O)[C@@H](NC(=O)[C@H](NC(=O)[C@@H](CCCNC(=N)N)NC(=O)[C@H](CCCNC(=N)N)NC(=O)[C@@H](NC(=O)[C@@H](Cc2ccccc2)NC)[C@@H](C)CC)[C@H](C)CC)[C@@H](C)CC)[C@H](C)OC(=O)[C@H]([C@@H](C)CC)NC1=O [Compound 48, Arg3-D-Arg4-Nva10-teixobactin] (H-[dNMeF]IR[dR][dI]IS[dT]A[Nva]I; ester 8-C)
–	1 (≈ 0.796 µM)	CCC[C@@H]1NC(=O)[C@H](C)NC(=O)[C@H](NC(=O)[C@H](CO)NC(=O)[C@@H](NC(=O)[C@H](NC(=O)[C@@H](CCC(N)=O)NC(=O)[C@H](CCCNC(=N)N)NC(=O)[C@@H](NC(=O)[C@@H](Cc2ccccc2)NC)[C@@H](C)CC)[C@H](C)CC)[C@@H](C)CC)[C@H](C)OC(=O)[C@H]([C@@H](C)CC)NC1=O [Compound 45, Arg3-Nva10-teixobactin] (H-[dNMeF]IR[dQ][dI]IS[dT]A[Nva]I; ester 8-C)
–	64 (≈ 46.7 µM)	CCC[C@@H]1NC(=O)[C@H](CCCNC(=N)N)NC(=O)[C@H](NC(=O)[C@H](CO)NC(=O)[C@@H](NC(=O)[C@H](NC(=O)[C@@H](CCCNC(=N)N)NC(=O)[C@H](CCCNC(=N)N)NC(=O)[C@@H](NC(=O)[C@@H](Cc2ccccc2)NC)[C@@H](C)CC)[C@H](C)CC)[C@@H](C)CC)[C@H](C)OC(=O)[C@H]([C@@H](C)CC)NC1=O [Compound 51, Arg3-D-Arg4-Arg9-Nva10-teixobactin] (H-[dNMeF]IR[dR][dI]IS[dT]R[Nva]I; ester 8-C)

Continued, compound first:

SMILES	MIC (MRSA*) [µg/mL]	MIC (MRSA) [µg/mL]
CC[C@@H](C)[C@@H](NC(=O)[C@@H](CCC(N)=O)NC(=O)[C@H](CO)NC(=O)[C@@H](NC(=O)[C@@H](Cc1ccccc1)NC)[C@@H](C)CC)C(=O)N[C@@H](C)C(=O)N[C@@H](CO)C(=O)N[C@H]1C(=O)N[C@@H](C)C(=O)N[C@@H](CCCNC(=N)N)C(=O)N[C@@H]([C@@H](C)CC)C(=O)O[C@H]1C [Compound 12] (H-[dNMeF]IS[dQ][dI]AS[dT]ARI; ester 8-C)	>128	–
CCC(C)[C@@H]1NC(=O)[C@H](C)NC(=O)[C@H](NC(=O)[C@H](CO)NC(=O)[C@@H](NC(=O)[C@H](NC(=O)[C@@H](CCCNC(=N)N)NC(=O)[C@H](CCCNC(=N)N)NC(=O)[C@@H](NC(=O)[C@@H](Cc2ccccc2)NC)[C@@H](C)CC)[C@H](C)CC)[C@@H](C)CC)[C@H](C)OC(=O)[C@H]([C@@H](C)CC)NC1=O (stereo partly drawn) [Compound 35, Arg3-D-Arg4-Ile10-teixobactin] (H-[dNMeF]IR[dR][dI]IS[dT]A[Ile(3ξ)]I; ester 8-C)	–	0.5 (≈ 0.385 µM)
CC[C@@H](C)[C@@H](NC(=O)[C@@H](CCC(N)=O)NC(=O)[C@H](CO)NC(=O)[C@@H](NC(=O)[C@@H](Cc1ccccc1)NC)[C@@H](C)CC)C(=O)N[C@H](C(=O)N[C@@H](C)C(=O)N[C@H]1C(=O)N[C@@H](C)C(=O)N[C@@H](CCCNC(=N)N)C(=O)N[C@@H]([C@@H](C)CC)C(=O)O[C@H]1C)[C@@H](C)CC [Compound 13, reference compound] (H-[dNMeF]IS[dQ][dI]IA[dT]ARI; ester 8-C)	16 to 32	–
CC[C@@H](C)[C@@H](NC(=O)[C@@H](CCC(N)=O)NC(=O)[C@H](CO)NC(=O)[C@@H](NC(=O)[C@@H](C)NC(C)=O)[C@@H](C)CC)C(=O)N[C@H](C(=O)N[C@@H](CO)C(=O)N[C@H]1C(=O)N[C@@H](C)C(=O)N[C@@H](CCCNC(=N)N)C(=O)N[C@@H]([C@@H](C)CC)C(=O)O[C@H]1C)[C@@H](C)CC [Compound 7]	>128	–
CC[C@@H](C)[C@@H](NC(=O)[C@@H](CCC(N)=O)NC(=O)[C@H](CO)NC(=O)[C@@H](NC(=O)[C@@H](Cc1ccccc1)NC)[C@@H](C)CC)C(=O)N[C@H](C(=O)N[C@@H](CO)C(=O)N[C@H]1C(=O)N[C@@H](CCCNC(=N)N)C(=O)N[C@@H](C2CCCCC2)C(=O)N[C@@H]([C@@H](C)CC)C(=O)O[C@H]1C)[C@@H](C)CC [Compound 39, Arg9-Chg10-teixobactin]	–	1 (≈ 0.762 µM)
CC[C@@H](C)[C@@H](NC(=O)[C@@H](CCC(N)=O)NC(=O)[C@H](CO)NC(=O)[C@@H](NC(=O)[C@@H](Cc1ccccc1)NC)[C@@H](C)CC)C(=O)N[C@H](C(=O)N[C@@H](CO)C(=O)N[C@H]1C(=O)N[C@@H](C)C(=O)N[C@@H](C2CCCCC2)C(=O)N[C@@H]([C@@H](C)CC)C(=O)O[C@H]1C)[C@@H](C)CC [Compound 36, Chg10-teixobactin]	–	0.25 (≈ 0.204 µM)
CC[C@@H](C)[C@@H](NC(=O)[C@@H](CCCNC(=N)N)NC(=O)[C@H](CO)NC(=O)[C@@H](NC(=O)[C@@H](Cc1ccccc1)NC)[C@@H](C)CC)C(=O)N[C@H](C(=O)N[C@@H](CO)C(=O)N[C@H]1C(=O)N[C@@H](CCCNC(=N)N)C(=O)N[C@@H](C2CCCCC2)C(=O)N[C@@H]([C@@H](C)CC)C(=O)O[C@H]1C)[C@@H](C)CC [Compound 42, D-Arg4-Arg9-Chg10-teixobactin] (H-[dNMeF]IS[dR][dI]IS[dT]R[Chg]I; ester 8-C)	–	0.5 (≈ 0.373 µM)
CC[C@@H](C)[C@@H](NC(=O)[C@@H](CCC(N)=O)NC(=O)[C@H](CO)NC(=O)[C@@H](NC(=O)[C@@H](Cc1ccccc1)NC)[C@@H](C)CC)C(=O)N[C@H](C(=O)N[C@@H](CO)C(=O)N[C@H]1C(=O)N[C@@H](C)C(=O)N[C@H](C)C(=O)N[C@@H]([C@@H](C)CC)C(=O)O[C@H]1C)[C@@H](C)CC [Compound 15]	32 (≈ 27.6 µM)	–
CC[C@@H](C)[C@@H](NC(=O)[C@@H](CCC(N)=O)NC(=O)[C@H](CO)NC(=O)[C@H](C)NC(=O)[C@@H](Cc1ccccc1)NC)C(=O)N[C@H](C(=O)N[C@@H](CO)C(=O)N[C@H]1C(=O)N[C@@H](C)C(=O)N[C@@H](CCCNC(=N)N)C(=O)N[C@@H]([C@@H](C)CC)C(=O)O[C@H]1C)[C@@H](C)CC [Compound 8] (H-[dNMeF]AS[dQ][dI]IS[dT]ARI; ester 8-C)	>128	–
CC[C@@H](C)[C@@H](NC(=O)[C@@H](CCC(N)=O)NC(=O)[C@H](CO)NC(=O)[C@@H](NC(=O)[C@@H](Cc1ccccc1)NC)[C@@H](C)CC)C(=O)N[C@H](C(=O)N[C@@H](CO)C(=O)N[C@H]1C(=O)N[C@@H](C)C(=O)NCC(=O)N[C@@H]([C@@H](C)CC)C(=O)O[C@H]1C)[C@@H](C)CC [Compound 16, Gly10-teixobactin]	2 (≈ 1.75 µM)	–
